Several values for one entry are separate records, joined by “and”; a condition that tells them apart may be missing. Identical values can stand only once. Marks after values point to notes of the source that are not given here.
Tests used:
[1] = tested on: secreted phospholipase B (LPL/LPTA activities); test: Radiometric assay, secreted LPL and LPTA activities (Lyso assay); format: biochemical, Cryptococcus neoformans H99; settings: for % Inhibition LPL, Secretory Enzyme / % Inhibition LPTA, Secretory Enzyme: pH 4
In short: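 Cell-free supernatant from C. neoformans H99 (incubated 24 h at 37° C in imidazole buffer, pH 5.5) with 1 μg total protein and 200 μM lyso-PC incl. 1-[^14C]palmitoyl lyso-PC, 15 s reaction. LPL from substrate loss, LPTA from radiolabelled PC formed, after extraction and TLC; inhibitors tested at 25 and 250 μM, then 2.5 and 0.25 μM, inhibition vs inhibitor-free control, triplicate.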

[2] = tested on: Candida albicans ATCC 10231; test: In vitro antifungal activity, yeasts, NCCLS M27-A; format: cell-based; settings: Candida albicans, ATCC10231; Table 9
Text: (§1) The assay used for yeasts (Candida; Cryptococcus) is that of the National Committee for Clinical Laboratory Standards. 1997. Reference Method for Broth Dilution Antifungal Susceptibility Testing of Yeasts: Approved Standard. NCCLS document M27-A.Villanova, Pa., USA as published in Ghannoum, M. A., A. S. Ibrahim, Y. Fu, M. C. Shafiq, J. E Edwards, Jr. and R. S. Criddle. 1992. Susceptibility testing of Cryptococcus neoformans: A microdilution technique. J. Clin. Microbiol. 30:2881-2886.

[3] = tested on: Cryptococcus neoformans ATCC 90112; test: In vitro antifungal activity, yeasts, NCCLS M27-A; format: cell-based; settings: Cryptococcus neoformans, ATCC90112; Table 9
Text: as §1

Compound | Lyso assay (% inhibition) LPL ([1]; 0.25 μM) | Lyso assay (% inhibition) LPTA ([1]; 0.25 μM) | % Inhibition LPL, Secretory Enzyme ([1]; 0.25 μM) | % Inhibition LPTA, Secretory Enzyme ([1]; 0.25 μM) | Lyso assay (% inhibition) LPL ([1]; 2.5 μM) | Lyso assay (% inhibition) LPTA ([1]; 2.5 μM) | % Inhibition LPL, Secretory Enzyme ([1]; 2.5 μM) | % Inhibition LPTA, Secretory Enzyme ([1]; 2.5 μM) | Lyso assay (% inhibition) LPL ([1]; 25 μM) | Lyso assay (% inhibition) LPTA ([1]; 25 μM) | % Inhibition LPL, Secretory Enzyme ([1]; 25 μM) | % Inhibition LPTA, Secretory Enzyme ([1]; 25 μM) | Lyso assay (% inhibition) LPL ([1]; 250 μM) | Lyso assay (% inhibition) LPTA ([1]; 250 μM) | % Inhibition LPL, Secretory Enzyme ([1]; 250 μM) | % Inhibition LPTA, Secretory Enzyme ([1]; 250 μM) | MIC [2] | MIC [3]
CCCC[P+](CCCC)(CCCC)CCCCCCCCCCCC[P+](CCCC)(CCCC)CCCC [Compound 1, 1,12-bis(tributylphosphonium)dodecane dibromide] | 0% | 0% | 0% | 0% | 0% | 0% | 0% | 0% | 0% | 0% | 0% | 0% | 6% | 4% | 6.3* % | 3.7* % |  | 
CCCC[N+](CCCC)(CCCC)CCCCCCCCCCCC[N+](CCCC)(CCCC)CCCC [1,12-Bis-(tributylammonium)dodecane dichloride] |  |  |  |  |  |  |  |  |  |  |  |  |  |  |  |  | 2.6 µg/mL and 4.4 µM | 1.3 µg/mL and 2.2 µM

From patent US7947854B2, “Bis-cationic compounds and use thereof” (The University of Sydney, priority 2003, dated 2011)
